From paper PMC6272579, “A Three-Enzyme-System to Degrade Curcumin to Natural Vanillin” (Molecules, 2015)

Molecular target: T1, CAL (Moesziomyces antarcticus, UniProt P41365)
T1 construct: immobilised commercial lipase Novozyme_435 (known to be lipase B)
T1 sequence (P41365 26-342): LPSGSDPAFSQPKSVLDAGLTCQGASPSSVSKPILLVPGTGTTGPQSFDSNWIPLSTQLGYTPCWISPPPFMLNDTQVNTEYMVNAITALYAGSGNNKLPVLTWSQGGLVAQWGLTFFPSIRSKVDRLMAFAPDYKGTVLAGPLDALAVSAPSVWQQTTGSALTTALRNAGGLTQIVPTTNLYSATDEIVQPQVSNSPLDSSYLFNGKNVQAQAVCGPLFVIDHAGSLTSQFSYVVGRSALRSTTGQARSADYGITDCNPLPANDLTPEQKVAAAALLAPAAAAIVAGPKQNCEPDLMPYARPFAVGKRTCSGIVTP
Test: lipase-catalysed acetylation, LC-MS
Type: biochemical
Details: immobilised enzyme; ethyl acetate/toluene 10:90, 4% acetate buffer pH 6, 40 °C; acyl donor geranyl acetate 1:50; acyl donor to curcumin

With CC(=O)OC/C=C(\C)CCC=C(C)C [geranyl acetate] the “lipase-catalysed acetylation, LC-MS” value was “using geranyl acetate as the acyl donor”.
